Measured values reported in patent US7855165B2, “Herbicide composition for paddy field” (Bayer Cropscience AG, priority 2007, dated 2010).
Like-named read-outs stand apart in the source and are kept apart here.

How the values were obtained:
[1] = Test Example 1: effect of the herbicide composition against paddy field weeds (pot test, green house); type: in vivo, annual broad-leaves; settings: 504 h, read-out: Herbicidal effect (%) BBBBB; for pest or weed control at 2.5 g/ha: 2.5 g/ha single; for pest or weed control at 5 g/ha: 5 g/ha single
Text: In a green house, seeds or tubers of Monochoria vaginalis Presl, annual broad-leaves (Lindernia procumbens Philcox, Rotala indica Koehne, Elatine triandra Schk, Ammannia multiflora Roxb., etc.), Cyperus serotinus Rottboel, and Sagittaria pygmaea Miq were inoculated to paddy field soil filled in a 500 cm^2 pot and brought to a submerged condition of about 2-3 cm. […] After the treatment, the submerged condition of 3 cm was maintained and the herbicidal effect was studied 3 weeks after the treatment. The herbicidal effect was evaluated as 100% in case of complete death and 0% in case of no effect.
(§1) In the tables, MOOVP represents Monochoria vaginalis Presl, BBBBB represents annual broad-leaves, CYPSE represents Cyperus serotinus Rottboel and SAGPY represents Sagittaria pygmaea Miq.

Sagittaria pygmaea Miq = assay: as above; type: in vivo; settings: Sagittaria pygmaea, 504 h, read-out: Herbicidal effect (%) SAGPY; for pest or weed control at 2.5 g/ha: 2.5 g/ha single; for pest or weed control at 5 g/ha: 5 g/ha single
Text: (§2) • Component (a) (a-1): compound No. 1 (ref: the aforementioned Table A) • (a-2): compound No. 3 (same as above) • (a-3): compound No. 11 (same as above) • Component (b) the aforementioned (b-1)-(b-15) • Component (c) the aforementioned (c-1)-(c-3) <Preparation of Test Agents> • Carrier: Acetone 5 parts by weight • Surfactant: Benzyloxy polyglycol ether 1 part by weight The above-mentioned carrier and surfactant and 1 part by weight of active compounds (component (a) and component (b) or component (c)) are mixed and the obtained formulations are diluted with water to prepare the test agents of the prescribed chemicals amount (preparations).
(§3) In a green house, seeds or tubers of Monochoria vaginalis Presl, annual broad-leaves (Lindernia procumbens Philcox, Rotala indica Koehne, Elatine triandra Schk, Ammannia multiflora Roxb., etc.), Cyperus serotinus Rottboel, and Sagittaria pygmaea Miq were inoculated to paddy field soil filled in a 500 cm^2 pot and brought to a submerged condition of about 2-3 cm. At 1.5-2 leafstage of each weed prescribed diluted solution of preparation of each active compound and each herbicide in the following table was applied on water surface each singly or simultaneously. After the treatment, the submerged condition of 3 cm was maintained and the herbicidal effect was studied 3 weeks after the treatment. The herbicidal effect was evaluated as 100% in case of complete death and 0% in case of no effect.
as §1

[2] = test system: Cyperus serotinus Rottboel; assay: as above; type: in vivo; settings: Cyperus serotinus, 504 h, read-out: Herbicidal effect (%) CYPSE; for pest or weed control at 2.5 g/ha: 2.5 g/ha single; for pest or weed control at 5 g/ha: 5 g/ha single
Text: as §2, §3, §1

[3] = test system: Monochoria vaginalis Presl; assay: as above; type: in vivo; settings: Pontederia vaginalis, 504 h, read-out: Herbicidal effect (%) MOOVP; for pest or weed control at 2.5 g/ha: 2.5 g/ha single; for pest or weed control at 5 g/ha: 5 g/ha single
Text: as §2, §3, §1

[4] = 125 g/ha single, 3 weeks after treatment
[5] = 250 g/ha single, 3 weeks after treatment
[6] = 50 g/ha single, 3 weeks after treatment
[7] = 100 g/ha single, 3 weeks after treatment
[8] = 75 g/ha single, 3 weeks after treatment
[9] = 150 g/ha single, 3 weeks after treatment
[10] = 300 g/ha single, 3 weeks after treatment
[11] = 600 g/ha single, 3 weeks after treatment
[12] = 20 g/ha single, 3 weeks after treatment
[13] = 40 g/ha single, 3 weeks after treatment

COP(=S)(OC)SCC(=O)N(c1ccc(Cl)cc1)C(C)(C)C [(b-1), anilofos]
pest or weed control at 100 g/ha [1]: 0%
pest or weed control at 200 g/ha [1]: 0%
pest or weed control at 100 g/ha (Sagittaria pygmaea Miq): 10%
pest or weed control at 200 g/ha (Sagittaria pygmaea Miq): 10%
pest or weed control at 100 g/ha [2]: 0%
pest or weed control at 200 g/ha [2]: 0%
pest or weed control at 100 g/ha [3]: 10%
pest or weed control at 200 g/ha [3]: 10%

CCCOCCN(C(=O)CCl)c1c(CC)cccc1CC [(b-2), pretilachlor]
pest or weed control at 125 g/ha [1, 4]: 10%
pest or weed control at 250 g/ha [1, 5]: 10%
pest or weed control at 125 g/ha (Sagittaria pygmaea Miq; [4]): 0%
pest or weed control at 250 g/ha (Sagittaria pygmaea Miq; [5]): 10%
pest or weed control at 125 g/ha [2, 4]: 0%
pest or weed control at 250 g/ha [2, 5]: 0%
pest or weed control at 125 g/ha [3, 4]: 10%
pest or weed control at 250 g/ha [3, 5]: 20%

CCN(CC)C(=O)n1cnc(S(=O)(=O)c2c(C)cc(C)cc2C)n1 [(b-3), cafenstrole]
pest or weed control at 75 g/ha [1]: 40%
pest or weed control at 150 g/ha [1]: 50%
pest or weed control at 75 g/ha (Sagittaria pygmaea Miq): 10%
pest or weed control at 150 g/ha (Sagittaria pygmaea Miq): 10%
pest or weed control at 75 g/ha [2]: 0%
pest or weed control at 150 g/ha [2]: 70%
pest or weed control at 75 g/ha [3]: 50%
pest or weed control at 150 g/ha [3]: 60%

CCCCOC(=O)[C@@H](C)Oc1ccc(Oc2ccc(C#N)cc2F)cc1 [(b-4), cyhalofop-butyl]
pest or weed control at 90 g/ha [1]: 0%
pest or weed control at 180 g/ha [1]: 0%
pest or weed control at 90 g/ha (Sagittaria pygmaea Miq): 10%
pest or weed control at 180 g/ha (Sagittaria pygmaea Miq): 20%
pest or weed control at 90 g/ha [2]: 0%
pest or weed control at 180 g/ha [2]: 0%
pest or weed control at 90 g/ha [3]: 0%
pest or weed control at 180 g/ha [3]: 10%

COc1cnc(OC)n2nc(NS(=O)(=O)c3c(OCC(F)F)cccc3C(F)(F)F)nc12 [(b-5), penoxsulam]
pest or weed control at 50 g/ha [1, 6]: 50%
pest or weed control at 100 g/ha [1, 7]: 90%
pest or weed control at 50 g/ha (Sagittaria pygmaea Miq; [6]): 65%
pest or weed control at 100 g/ha (Sagittaria pygmaea Miq; [7]): 85%
pest or weed control at 50 g/ha [2, 6]: 70%
pest or weed control at 100 g/ha [2, 7]: 70%
pest or weed control at 50 g/ha [3, 6]: 75%
pest or weed control at 100 g/ha [3, 7]: 90%

COc1cc(OC)nc(Oc2cccc(Oc3nc(OC)cc(OC)n3)c2C(=O)O)n1 [(b-7), bispyribac-sodium]
pest or weed control at 2.5 g/ha ([1]; 3 weeks after treatment): 10%
pest or weed control at 5 g/ha ([1]; 3 weeks after treatment): 10%
pest or weed control at 2.5 g/ha (Sagittaria pygmaea Miq; 3 weeks after treatment): 0%
pest or weed control at 5 g/ha (Sagittaria pygmaea Miq; 3 weeks after treatment): 30%
pest or weed control at 2.5 g/ha ([2]; 3 weeks after treatment): 20%
pest or weed control at 5 g/ha ([2]; 3 weeks after treatment): 60%
pest or weed control at 2.5 g/ha ([3]; 3 weeks after treatment): 0%
pest or weed control at 5 g/ha ([3]; 3 weeks after treatment): 10%

CCN(C(=O)n1nnn(-c2ccccc2Cl)c1=O)C1CCCCC1 [(b-8), fentrazamide]
pest or weed control at 75 g/ha [1, 8]: 40%
pest or weed control at 150 g/ha [1, 9]: 70%
pest or weed control at 75 g/ha (Sagittaria pygmaea Miq; [8]): 30%
pest or weed control at 150 g/ha (Sagittaria pygmaea Miq; [9]): 30%
pest or weed control at 75 g/ha [2, 8]: 30%
pest or weed control at 150 g/ha [2, 9]: 30%
pest or weed control at 75 g/ha [3, 8]: 40%
pest or weed control at 150 g/ha [3, 9]: 60%

CN(C(=O)COc1nc2ccccc2s1)c1ccccc1 [(b-9), mefenacet]
pest or weed control at 300 g/ha [1, 10]: 30%
pest or weed control at 600 g/ha [1, 11]: 40%
pest or weed control at 300 g/ha (Sagittaria pygmaea Miq; [10]): 10%
pest or weed control at 600 g/ha (Sagittaria pygmaea Miq; [11]): 10%
pest or weed control at 300 g/ha [2, 10]: 30%
pest or weed control at 600 g/ha [2, 11]: 30%
pest or weed control at 300 g/ha [3, 10]: 65%
pest or weed control at 600 g/ha [3, 11]: 80%

CC1=C(c2ccccc2)C(=O)N(C(C)(C)c2cc(Cl)cc(Cl)c2)CO1 [(b-10), oxaziclomefone]
pest or weed control at 20 g/ha [1]: 40%
pest or weed control at 40 g/ha [1]: 40%
pest or weed control at 20 g/ha (Sagittaria pygmaea Miq; [12]): 0%
pest or weed control at 40 g/ha (Sagittaria pygmaea Miq; [13]): 10%
pest or weed control at 20 g/ha [2, 12]: 0%
pest or weed control at 40 g/ha [2, 13]: 0%
pest or weed control at 20 g/ha [3, 12]: 10%
pest or weed control at 40 g/ha [3, 13]: 20%

CCS(=O)(=O)Oc1ccc2c(c1)C(C)(C)CO2 [(b-11), benfuresate]
pest or weed control at 125 g/ha [1]: 0%
pest or weed control at 250 g/ha [1]: 0%
pest or weed control at 125 g/ha (Sagittaria pygmaea Miq): 10%
pest or weed control at 250 g/ha (Sagittaria pygmaea Miq): 20%
pest or weed control at 125 g/ha [2]: 20%
pest or weed control at 250 g/ha [2]: 70%
pest or weed control at 125 g/ha [3]: 0%
pest or weed control at 250 g/ha [3]: 0%

COC(=O)c1ccccc1CS(=O)(=O)NC(=O)Nc1nc(OC)cc(OC)n1 [(b-12), bensulfuron-methyl]
pest or weed control at 2.5 g/ha ([1]; 3 weeks after treatment): 50%
pest or weed control at 5 g/ha ([1]; 3 weeks after treatment): 60%
pest or weed control at 2.5 g/ha (Sagittaria pygmaea Miq; 3 weeks after treatment): 50%
pest or weed control at 5 g/ha (Sagittaria pygmaea Miq; 3 weeks after treatment): 50%
pest or weed control at 2.5 g/ha ([2]; 3 weeks after treatment): 40%
pest or weed control at 5 g/ha ([2]; 3 weeks after treatment): 40%
pest or weed control at 2.5 g/ha ([3]; 3 weeks after treatment): 30%
pest or weed control at 5 g/ha ([3]; 3 weeks after treatment): 60%
